Experiments:
Assay in all cases: Test B pre-/postemergence plant response
Assay type in all cases: in vivo
[1] = test system: green foxtail (Setaria viridis)
Summary of the method: (§1)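 Ratings reflect visual comparison with untreated controls 13 to 15 days after application, from 0 (no effect) to 100 (complete control). Application was preemergence to seeded loam/sand soil or postemergence to 1- to 4-leaf plants, with compound in a non-phytotoxic, surfactant-containing solvent.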

[2] = test system: pigweed (Amaranthus retroflexus)
Summary of the method: as §1

[3] = test system: goosegrass (Eleusine indica)
Summary of the method: as §1

[4] = test system: wheat (Triticum aestivum)
Summary of the method: as §1

[5] = test system: velvetleaf (Abutilon theophrasti)
Summary of the method: as §1

[6] = test system: yellow nutsedge (Cyperus esculentus)
Summary of the method: as §1

[7] = test system: Surinam grass (Brachiaria decumbens)
Summary of the method: as §1

[8] = test system: downy bromegrass (Bromus tectorum)
Summary of the method: as §1

[9] = test system: ragweed (common ragweed, Ambrosia elatior)
Summary of the method: as §1

[10] = test system: large crabgrass (Digitaria sanguinalis)
Summary of the method: as §1

[11] = test system: woolly cupgrass (Eriochloa villosa)
Summary of the method: as §1

[12] = test system: Italian ryegrass (Lolium multiflorum)
Summary of the method: as §1

[13] = test system: lambsquarters (Chenopodium album)
Summary of the method: as §1

[14] = 31 g ai/ha, postemergence, scale 0 to 100, 0 is no effect, 100 is complete control
[15] = 62 g ai/ha, postemergence, 0 is no effect, 100 is complete control, 13 to 15 days
[16] = Postemergence, 125 g ai/ha, visual rating after 13 to 15 days, scale 0 (no effect) to 100 (complete control)
[17] = Postemergence, 250 g ai/ha, scale 0 to 100 (0 no effect, 100 complete control)
[18] = Preemergence, 31 g ai/ha, scale 0 to 100 (0 no effect, 100 complete control)
[19] = Preemergence, 62 g ai/ha, scale 0 to 100 (0 no effect, 100 complete control)
[20] = Preemergence, 125 g ai/ha, scale 0 to 100, 0 no effect, 100 complete control
[21] = Preemergence, 250 g ai/ha, 0 to 100 scale

`CCCn1c(-c2cccs2)ncc(C(=O)C2=C(O)CCCC2=O)c1=O` [Compound 77] was tested, and the “Plant response rating, Foxtail, Green” value [1, 14] was 40, the “Foxtail, Green plant response rating (0 to 100 scale)” value [1, 15] was 80 and the “Plant response rating, Foxtail, Green” value [1, 16] was 80. For the same compound, the “Plant response rating, Foxtail, Green” value [1, 17] was 80, the “Plant response rating, Foxtail, Green” value [1, 18] was 0 and the “Plant response rating, Foxtail, Green” value [1, 19] was 0. The “Plant response rating, Foxtail, Green” value [1, 20] was 0, the “Foxtail, Green plant response rating” value [1, 21] was 15 and the “Plant response rating, Pigweed” value [2, 14] was 98. The “Pigweed plant response rating (0 to 100 scale)” value [2, 15] was 98, the “Plant response rating, Pigweed” value [2, 16] was 100 and the “Plant response rating, Pigweed” value [2, 17] was 100. For the same compound, the “Plant response rating, Pigweed” value [2, 18] was 100, the “Plant response rating, Pigweed” value [2, 19] was 100 and the “Plant response rating, Pigweed” value [2, 20] was 100. For the same compound, the “Pigweed plant response rating” value [2, 21] was 100, the “Plant response rating, Goosegrass” value [3, 14] was 65 and the “Goosegrass plant response rating (0 to 100 scale)” value [3, 15] was 75. For the same compound, the “Plant response rating, Goosegrass” value [3, 16] was 75, the “Plant response rating, Goosegrass” value [3, 17] was 85 and the “Plant response rating, Goosegrass” value [3, 18] was 55. The “Plant response rating, Goosegrass” value [3, 19] was 95, the “Plant response rating, Goosegrass” value [3, 20] was 98 and the “Goosegrass plant response rating” value [3, 21] was 98. For the same compound, the “Plant response rating, Wheat” value [4, 14] was 0, the “Wheat plant response rating (0 to 100 scale)” value [4, 15] was 5 and the “Plant response rating, Wheat” value [4, 16] was 10. For the same compound, the “Plant response rating, Wheat” value [4, 17] was 10, the “Plant response rating, Wheat” value [4, 18] was 0 and the “Plant response rating, Wheat” value [4, 19] was 0. For the same compound, the “Plant response rating, Wheat” value [4, 20] was 0, the “Wheat plant response rating” value [4, 21] was 0 and the “Plant response rating, Velvetleaf” value [5, 14] was 90. The “Velvetleaf plant response rating (0 to 100 scale)” value [5, 15] was 98, the “Plant response rating, Velvetleaf” value [5, 16] was 98 and the “Plant response rating, Velvetleaf” value [5, 17] was 100. For the same compound, the “Plant response rating, Velvetleaf” value [5, 18] was 95, the “Plant response rating, Velvetleaf” value [5, 19] was 100 and the “Plant response rating, Velvetleaf” value [5, 20] was 100. The “Velvetleaf plant response rating” value [5, 21] was 100, the “Plant response rating, Nutsedge, Yellow” value [6, 14] was 45 and the “Nutsedge, Yellow plant response rating (0 to 100 scale)” value [6, 15] was 60. The “Plant response rating, Nutsedge, Yellow” value [6, 16] was 70, the “Plant response rating, Nutsedge, Yellow” value [6, 17] was 80 and the “Plant response rating, Nutsedge, Yellow” value [6, 18] was 75. The “Plant response rating, Nutsedge, Yellow” value [6, 19] was 80, the “Plant response rating, Nutsedge, Yellow” value [6, 20] was 90 and the “Nutsedge, Yellow plant response rating” value [6, 21] was 90. The “Plant response rating, Surinam Grass” value [7, 14] was 65, the “Surinam Grass plant response rating (0 to 100 scale)” value [7, 15] was 65 and the “Plant response rating, Surinam Grass” value [7, 16] was 75. For the same compound, the “Plant response rating, Surinam Grass” value [7, 17] was 80, the “Plant response rating, Surinam Grass” value [7, 18] was 0 and the “Plant response rating, Surinam Grass” value [7, 19] was 20. For the same compound, the “Plant response rating, Surinam Grass” value [7, 20] was 75, the “Surinam Grass plant response rating” value [7, 21] was 100 and the “Plant response rating, Bromegrass, Downy” value [8, 14] was 0. The “Bromegrass, Downy plant response rating (0 to 100 scale)” value [8, 15] was 5, the “Plant response rating, Bromegrass, Downy” value [8, 16] was 5 and the “Plant response rating, Bromegrass, Downy” value [8, 17] was 5. For the same compound, the “Plant response rating, Bromegrass, Downy” value [8, 18] was 0, the “Plant response rating, Bromegrass, Downy” value [8, 19] was 0 and the “Plant response rating, Bromegrass, Downy” value [8, 20] was 0. The “Bromegrass, Downy plant response rating” value [8, 21] was 0, the “Plant response rating, Ragweed” value [9, 14] was 75 and the “Ragweed plant response rating (0 to 100 scale)” value [9, 15] was 75. For the same compound, the “Plant response rating, Ragweed” value [9, 16] was 80, the “Plant response rating, Ragweed” value [9, 17] was 85 and the “Plant response rating, Ragweed” value [9, 18] was 50. The “Plant response rating, Ragweed” value [9, 19] was 75, the “Plant response rating, Ragweed” value [9, 20] was 90 and the “Ragweed plant response rating” value [9, 21] was 95. The “Plant response rating, Crabgrass, Large” value [10, 14] was 55, the “Crabgrass, Large plant response rating (0 to 100 scale)” value [10, 15] was 60 and the “Plant response rating, Crabgrass, Large” value [10, 16] was 75. For the same compound, the “Plant response rating, Crabgrass, Large” value [10, 17] was 85, the “Plant response rating, Crabgrass, Large” value [10, 18] was 70 and the “Plant response rating, Crabgrass, Large” value [10, 19] was 98. The “Plant response rating, Crabgrass, Large” value [10, 20] was 98, the “Crabgrass, Large plant response rating” value [10, 21] was 100 and the “Plant response rating, Cupgrass, Woolly” value [11, 14] was 20. The “Cupgrass, Woolly plant response rating (0 to 100 scale)” value [11, 15] was 20, the “Plant response rating, Cupgrass, Woolly” value [11, 16] was 35 and the “Plant response rating, Cupgrass, Woolly” value [11, 17] was 40. The “Plant response rating, Cupgrass, Woolly” value [11, 18] was 0, the “Plant response rating, Cupgrass, Woolly” value [11, 19] was 0 and the “Plant response rating, Cupgrass, Woolly” value [11, 20] was 0. The “Cupgrass, Woolly plant response rating” value [11, 21] was 0, the “Plant response rating, Ryegrass, Italian” value [12, 14] was 0 and the “Ryegrass, Italian plant response rating (0 to 100 scale)” value [12, 15] was 5. The “Plant response rating, Ryegrass, Italian” value [12, 16] was 5, the “Plant response rating, Ryegrass, Italian” value [12, 17] was 10 and the “Plant response rating, Ryegrass, Italian” value [12, 18] was 0. For the same compound, the “Plant response rating, Ryegrass, Italian” value [12, 19] was 0, the “Plant response rating, Ryegrass, Italian” value [12, 20] was 0 and the “Ryegrass, Italian plant response rating” value [12, 21] was 0. For the same compound, the “Plant response rating, Lambsquarters” value [13, 14] was 95, the “Lambsquarters plant response rating (0 to 100 scale)” value [13, 15] was 98 and the “Plant response rating, Lambsquarters” value [13, 16] was 98. The “Plant response rating, Lambsquarters” value [13, 17] was 98, the “Plant response rating, Lambsquarters” value [13, 18] was 98 and the “Plant response rating, Lambsquarters” value [13, 19] was 98. For the same compound, the “Plant response rating, Lambsquarters” value [13, 20] was 100 and the “Lambsquarters plant response rating” value [13, 21] was 100.
